According to patent US9233067B2, “Silk particles for controlled and sustained delivery of compounds” (Amsilk GmbH, priority 2009, dated 2016):
Entries after “also recorded” stand apart in the source; their conditions may differ. Structures can show the parent of a compound that is named as a salt.

What was measured:
[1] = Properties of small molecular weight model drugs (Table 1); format: physicochemical; conditions: for Predominant charge at pH7: pH 7, aqueous media
Protocol: All drugs were dissolved in water at a concentration of 0.21 μmol/ml. Drug substances and their featured properties are depicted in Table 1. The main selection criteria were solubility in aqueous media (expressed by the octanol/water partition coefficient (log P)), the acidic dissociation constant (pKa for protonated bases (BH+) or for acids (HA)) and the resulting net-charge in aqueous media (predominant or permanent charge).

[2] = cited from earlier work; for log P: octanol/water, individual unprotonated forms; for Dissociation constant of BH^+(pKa): protonated base
[3] = Calculated apparent distribution coefficient (log D); conditions: pH 7; calculated from log P and pKa
Text: Further, the distribution between a hydrophobic and a hydrophilic phase of two different species of a specific drug, i.e. the native and the protonated form, can be described by its apparent distribution coefficient (log D), which can be calculated with equations (3) and (4) respectively. for acids: log D=log P−log(1+10^pH-pKa) (3) for bases: log D=log P−log(1+10^pKa-pH) (4)

[4] = In vitro release from drug loaded eADF4(C16) particles; format: physicochemical; conditions: power law fit
Protocol: Drug loaded eADF4(C16) particles were washed with distilled water and suspended in 1 ml PBS (pH 7.4) before incubation at 37° C. with constant shaking. Each vial contained 2 mg of drug loaded particles containing […] spider silk protein. The solvent was periodically removed from each sample and replaced with fresh PBS (pH 7.4). The drug content in the medium was then analyzed using UV-Vis-spectrometry. The percentage of cumulative model drug release (% w/w) was investigated as a function of incubation time. Each experiment was performed in triplicate. To study the effect of different pH values on the release behaviour of drug loaded eADF4(C16) particles, 1 mg drug loaded silk particles were incubated in 1.0 ml PBS at 5 different pH values (pH 2, 4, 6, 7.4 and 8.8) for 5 days. The solvent was withdrawn daily and the particles were redispersed in fresh media. Supernatants of drawn samples were analyzed for drug content determination with UV-Vis-spectrometry.
[formula] where Mt/M∞ is the fractional amount of the drug released at time t, k is a characteristic constant of the system, and exponent n is related to the geometrical shape of the formulation and is indicative of the mechanism of drug release. The semi-empirical power law can be seen as a generalization of two independent mechanisms of drug transport, Fickian diffusion and Case II transport, reflecting the influence of polymer relaxation on molecules' movement in the matrix. For spherical systems the limiting value of n, when pure Fickian diffusion or pure Case II transport is operating, were determined to be equal to 0.43 and 0.85, respectively. When n is between 0.43 and 0.85, a superposition of both transport processes occurs which is known as anomalous transport. In order to obtain a linear fit for the drug release data, equation (5) was modified leading to equation (6),
[formula] where n can be calculated from the slope of the log-log plot of release Mt/M∞ versus time t by linear fitting (FIG. 4d). Therefrom, three time intervals with different dominating release mechanisms could be identified excluding the initial burst region (<24 h). To distinguish between different time intervals, the criterion that the coefficient r2 had to be above 0.99 for the individual linear fits was employed. For validation of the determined release parameters, the experimental release data were compared with theoretical data obtained by the semi-empirical power law employing the determined values for k and n. A very good agreement from post-initial burst stage (>24 hours) up to 100% release was obtained (FIG. 4 a). Since only release data after 24 hours were considered for calculation of release parameters (k and n), the initial burst is underestimated by theoretical data (FIG. 4 b).

[5] = pH of 7.0; cited from earlier work
[6] = Particle size of lysozyme loaded C16 spider silk particles (dynamic light scattering); format: physicochemical; conditions: particles loaded with approximately 10% [w/w] lysozyme
Protocol: The loading procedure as applied in example 6 was modulated and implemented as follows: A stock dispersion of spider silk particles was centrifuged and redispersed in the desired buffer media before loading. A second stock solution comprising lysozyme was prepared by dissolving lyophilized lysozyme in an identical buffer solution. […] After 30 minutes of incubation at room temperature under gentle agitation, 20 μl of the resulting particle suspension were used for dynamic light scattering measurements. Simultaneously, samples were centrifuged and the supernatant was analyzed for residual protein content using the Micro BCA Protein Assay Kit (Thermo Scientific). Encapsulation efficiencies and loading were determined according to example 6 by using equation (1) and (2), respectively.

Zeta potential analysis = format: physicochemical; conditions: lysozyme loading up to 30%; pH 7.0/30 mM
Protocol: In order to elucidate and characterize the loading mechanism of eADF4(C16) particles with model drugs, zeta potential measurements were conducted as a function of amount of model drug added. The zeta potential was determined using a Nanoseries Malvern Zetasizer (Malvern, Worcestershire, UK). Automatic titration was conducted with a Malvern Multipurpose Titrator MPT-2. Experiments were performed in distilled water (pH 7) at 25° C. Each measurement was performed in triplicate.

Compound	Permanently charged [1]	Predominant charge at pH7 [1]	log P [2]	log D [3]	Dissociation constant of BH^+(pKa) [2]	also measured
CN[C@@H](C)[C@H](O)c1ccccc1 [Ephedrine*HCl, Ephedrine]	no	positive	1.30	−1.321		
CCOc1ccc2nc3cc(N)ccc3c(N)c2c1 [Ethacridine lactate]	no	positive	2.50	2.899	11.00	k (characteristic constant) ([4]; time 0-13 d): 1.25; n (release exponent) ([4]; time 0-13 d): 00.6754; n (release exponent) ([4]; time 0-13 d, listed as ethacridine lactate): 0.6754; k (characteristic constant) ([4]; time 14-20 d): 3.18; n (release exponent) ([4]; time 14-20 d): 0.5083; n (release exponent) ([4]; time 14-20 d, listed as ethacridine lactate): 0.51; k (characteristic constant) ([4]; time >20 d): 14.4; n (release exponent) ([4]; time >20 d): 0.2641
COc1ccc(Cc2nccc3cc(OC)c(OC)cc23)cc1OC [Papaverine*HCl, Papaverine]	no	positive	3.50	2.395	8.07	
O=S1(=O)OC(c2ccc(O)cc2)(c2ccc(O)cc2)c2ccccc21 [Phenol red]			3.00			
CCN(CC)CCOC(=O)c1ccc(N)cc1 [Procaine*HCl, Procaine]	no	positive	2.40	0.396	8.05	
CC(C)NCC(O)COc1cccc2ccccc12 (stereo not drawn) [Propranolol*HCl, Propranolol]	no	positive				
CCCCNc1ccc(C(=O)OCCN(C)C)cc1 [Tetracaine*HCl, Tetracaine]	no	positive	4.00	2.773		
Lysozyme: protein compound with an isoelectric point of 11.35 and a molecular weight of 14.3 kDa						net charge [5]: positive; particle size compared to unloaded spider silk particles [6]: no increase in size; also recorded: did not differ; change in the zeta-potential of particles (Zeta potential analysis): did not show a significant change
Methyl violet	yes	positive	3.20			k (characteristic constant) ([4]; time 0-13 d): 1.17; n (release exponent) ([4]; time 0-13 d): 0.692; k (characteristic constant) ([4]; time 14-20 d): 1.92; n (release exponent) ([4]; time 14-20 d): 0.6079; n (release exponent) ([4]; time 14-20 d, listed as methyl violet): 0.61; k (characteristic constant) ([4]; time >20 d): 9.20; n (release exponent) ([4]; time >20 d): 0.3537
Nerve growth factor: protein with an isoelectric point of 9.5 and a molecular weight of 13 kDa						net charge [5]: positively charged
